Experimental data as given in PMC4731787, “Structural basis for the recognition of two consecutive mutually interacting DPF motifs by the SGIP1 μ homology domain” (Scientific Reports, 2016).
Values belong to the molecule of their own block, whether it stands above or below them.

B2: FCHo1 µ homology domain (µHD), residues 623 to 889 (domain or fragment, human, UniProt O14526-1 623-889, looked up)
chain: QDALPIATAFTEYVHAYFRGHSPSCLARVTGELTMTFPAGIVRVFSGTPPPPVLSFRLVHTTAIEHFQPNADLLFSDPSQSDPETKDFWLNMAALTEALQRQAEQNPTASYYNVVLLRYQFSRPGPQSVPLQLSAHWQCGATLTQVSVEYGYRPGATAVPTPLTNVQILLPVGEPVTNVRLQPAATWNLEEKRLTWRLPDVSEAGGSGRLSASWEPLSGPSTPSPVAAQFTSEGTTLSGVDLELVGSGYRMSLVKRRFATGMYLVSC
notes: also called FCHo1 µHD; human FCHo1 µHD (aa623–889); source: E. coli, expressed and purified in the same manner as the SGIP1 µHD
B3: Eps15-618–654 (domain or fragment, human)
chain: GPLGSYDFFQSDPFVGSDPFKDDPFGKIDPFGGDPFKGSDPFA
notes: source: E. coli, expressed and purified in the same manner as the SGIP1 µHD

Experiments:
[1] = target: T1, SGIP1 μHD (residues 552 to 828) (Homo sapiens, UniProt Q9BQI5); test: ITC of Eps15 fragments with the SGIP1 μHD; type: binding; settings: μHD in cell titrated with fragment, single-site model
T1 construct: the SGIP1 μHD (residues 552 to 828); GST (N, cleaved yes); made in house; host or cells: Escherichia coli BL21-Gold (DE3) or Rosetta2
T1 sequence (Q9BQI5 552-828): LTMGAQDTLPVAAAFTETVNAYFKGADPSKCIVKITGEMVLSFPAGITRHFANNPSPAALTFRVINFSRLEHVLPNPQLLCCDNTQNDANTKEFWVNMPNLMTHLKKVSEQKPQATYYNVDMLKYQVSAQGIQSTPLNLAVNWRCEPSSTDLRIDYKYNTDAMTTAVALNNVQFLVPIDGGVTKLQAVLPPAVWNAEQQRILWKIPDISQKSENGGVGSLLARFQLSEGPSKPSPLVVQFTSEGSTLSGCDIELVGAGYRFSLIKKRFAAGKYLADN
Summary of the method: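 Isothermal titration calorimetry was run at 25 °C in 50 mM Tris-HCl pH 8.0, 50 mM NaCl, mostly titrating Eps15 fragments or peptides into μHD protein in the cell (25 injections, 4 min apart). Some runs reversed the titration direction. Duplicate runs were globally fitted to single- or two-site models, with N derived from incompetent-fraction parameters.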

SGIP1 µHD N670D = target: T2, SGIP1 µHD N670D (Homo sapiens, UniProt Q9BQI5, N670D); test: ITC of Eps15 fragments with the SGIP1 μHD N670D mutant; type: binding
T2 construct: the SGIP1 μHD (residues 552 to 828); GST (N, cleaved yes); made in house; host or cells: Escherichia coli (as for the wild-type μHD)
T2 sequence (Q9BQI5 552-828 N670D): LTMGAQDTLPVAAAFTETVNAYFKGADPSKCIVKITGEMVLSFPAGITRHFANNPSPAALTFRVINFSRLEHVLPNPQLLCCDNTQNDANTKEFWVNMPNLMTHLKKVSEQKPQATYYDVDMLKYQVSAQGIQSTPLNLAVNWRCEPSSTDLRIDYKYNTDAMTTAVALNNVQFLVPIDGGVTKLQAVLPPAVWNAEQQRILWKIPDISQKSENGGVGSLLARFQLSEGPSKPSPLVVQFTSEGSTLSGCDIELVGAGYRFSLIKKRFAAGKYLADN
Procedure: For the majority of the ITC experiments, the SGIP1 μHD, its mutants, or the FCHo1 μHD, in 50 mM Tris-HCl buffer (pH 8.0) containing 50 mM NaCl, was loaded in the sample cell, in a volume of 1.42 ml, and titrated with various Eps15-derived fragments or peptides in the same buffer, with an initial 5 μl injection and subsequent 10 μl injections, for a total of 25 injections. The titrations were performed while the samples were stirred at 310 r.p.m. at 25 °C. Each injection was followed by an interval of 4 min, to allow baseline stabilization. For the other ITC experiments indicated in Supplementary Table 2, the Eps15-derived fragments or peptides in the sample cell were titrated with the SGIP1 or FCHo1 μHD. All ITC experiments were performed on a VP-ITC microcalorimeter (MicroCal, LLC) and repeated twice, and the data were processed with the program NITPIC[42]. The two data sets from each ITC experiment were analyzed by global weighted least-squares fitting with the program SEDPHAT[43]. Figures for the ITC data were created with the program GUSSI (http://biophysics.swmed.edu/MBR/software.html). To obtain the values of the traditional stoichiometric parameter N in our ITC data analyses (Supplementary Table 2), we used the values of the parameters of the incompetent fractions of proteins and ligands. […]

human full-length FCHo1 = settings: pull-down assay; lower than the other longer fragments with more DPF motifs tested in the same reference; ref Umasankar et al.23; cited from earlier work
From the text: page 12: Supplementary Table 3 Regions of Eps15, Eps15R, and Dab2, involved in binding to the µHDs of SGIP1/ SGIP1α/FCHo1/FCHo2 from various sources. µHD-containing protein µHD-binding Region involved in binding Number of DPF motifs Method used to confirm binding Strength of Reference protein to the µHD in the binding region affinity mouse SGIP1 µHD (aa501–807) Eps15 a residues 594–896 15 b pull-down assay (competition) unknown Reider et al. 8 mouse SGIP1α µHD (aa561–854) rat Eps15 residues 593–894 15 pull-down assay unknown Uezu et al.19 mouse SGIP1α µHD (aa428–854) rat Eps15 residues 636–747 ...

[2] = target: T3, SGIP1 μ homology domain (residues 552 to 828) (human, UniProt Q9BQI5-1 552-828); test: ITC; VP-ITC, 25 °C, 50 mM Tris-HCl pH 8.0, 50 mM NaCl; for the majority the μHD (SGIP1, its mutants or FCHo1) in the cell, titrated with Eps15 fragments or peptides, for others the reverse (Supplementary Table 2); repeated twice, global fit with SEDPHAT, single-site or two-site model; settings: both partners purified
T3 construct: A SeMet-substituted form (E. coli B834(DE3)) was used only for the structure of the domain alone; also called SGIP1 μHD; μHD; source: E. coli BL21-Gold (DE3) or Rosetta2, purified (Glutathione Sepharose, 3C protease cleavage on the column, Superdex 200)
T3 sequence (looked up): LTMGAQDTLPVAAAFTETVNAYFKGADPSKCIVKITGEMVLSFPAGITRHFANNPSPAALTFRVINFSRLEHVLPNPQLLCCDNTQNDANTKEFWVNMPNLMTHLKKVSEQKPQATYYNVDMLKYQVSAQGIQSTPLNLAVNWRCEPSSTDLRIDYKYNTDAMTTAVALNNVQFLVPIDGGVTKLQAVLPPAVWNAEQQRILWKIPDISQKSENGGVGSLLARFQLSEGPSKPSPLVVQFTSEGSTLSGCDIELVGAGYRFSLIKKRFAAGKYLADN

[3] = target: T4, FCHo1 μ homology domain (residues 623 to 889) (human, UniProt O14526-1 623-889); test: as above; settings: both partners purified
T4 construct: FCHo1 (FCH domain only 1), human, μ homology domain, residues 623-889; also called FCHo1 μHD; source: E. coli, purified in the same manner as for the SGIP1 μHD
T4 sequence (looked up): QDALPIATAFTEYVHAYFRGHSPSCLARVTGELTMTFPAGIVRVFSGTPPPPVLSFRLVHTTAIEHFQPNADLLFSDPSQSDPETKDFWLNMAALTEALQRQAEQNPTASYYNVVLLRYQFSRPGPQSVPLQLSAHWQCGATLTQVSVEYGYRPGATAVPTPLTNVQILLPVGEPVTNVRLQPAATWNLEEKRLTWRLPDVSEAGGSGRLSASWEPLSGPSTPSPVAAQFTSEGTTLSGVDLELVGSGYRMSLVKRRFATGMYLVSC

Eps15-618–654 = target: B3; test: ITC; Eps15 fragment in the sample cell, titrated with the SGIP1 or FCHo1 µHD; 50 mM Tris-HCl (pH 8.0), 50 mM NaCl, 25 °C; VP-ITC; two data sets fitted globally (NITPIC, SEDPHAT); single-site or two-site model as named in the quantity; settings: both partners purified
[4] = target: B2; test: as above; settings: both partners purified
[5] = target: B2; test: ITC; µHD, µHD mutant or α-adaptin appendage domain in the sample cell, titrated with the Eps15 fragment or peptide; 50 mM Tris-HCl (pH 8.0), 50 mM NaCl, 25 °C; VP-ITC; two data sets fitted globally (NITPIC, SEDPHAT); single-site model; settings: both partners purified

-TΔS ([1]; 25 °C): 2.106 kcal/mol
ΔG ([1]; 25 °C): -6.166 kcal/mol
ΔH ([1]; 25 °C, ± 68.3% confidence interval): -8.272 ± 0.679 kcal/mol
N (binding ratio of Eps15 fragment to μHD) ([1]; ± 68.3% confidence interval): 0.66 ± 0.03
binding to SGIP1 μHD with Asn670 replaced by Asp (in words) (SGIP1 µHD N670D): abolished the binding
Kd (SGIP1 µHD N670D; 25 °C, 50 mM Tris-HCl pH 8.0, 50 mM NaCl, mutant μHD in cell titrated with fragment, two runs): below detection limit
Molecule: Ac-YDPFGGDPFKG-NH2 [Eps15-640–649]

Molecule: Eps15 residues 595–636: Eps15 region of a previous report, first DPF motifs of the high-affinity site, source assumed human (SKEEDPFNVDSSSLTGPVADTNLDFFQSDPFVGSDPFKDDPF; UniProt P42566 595-636, looked up, fragment)
Strength of affinity (human full-length FCHo1): low

Kd of the high-affinity site (two-site model) [2]: ~65 nM
binding result [3]: binds
B1: Eps15-618–654 (domain or fragment, human, UniProt P42566-1 618-654, looked up)
chain: DFFQSDPFVGSDPFKDDPFGKIDPFGGDPFKGSDPFA
notes: also called 37-residue region containing six consecutive DPF motifs; source: E. coli, purified in the same manner as for the SGIP1 μHD

Molecule: B2
stoichiometry N (Eps15-618–654): 0.7

Molecule: B3
Kd [4]: 190 nM
Kd [5]: 270 nM
stoichiometry N [5]: 0.59
